Here are results for 18 compounds from PMC9490236, “Accurate de novo design of membrane-traversing macrocycles” (Cell, 2022).

Molecules are shown by their SMILES. Where a SMILES comes first, the peptide text is derived from it. [ ]: non-standard residue; d: D form. NMeF = CN[C@@H](Cc1ccccc1)C(=O)O; NMeL = CN[C@@H](CC(C)C)C(=O)O; dNMeL = CN[C@H](CC(C)C)C(=O)O; dNMeV = CN[C@@H](C(=O)O)C(C)C; NMeNle = CCCC[C@H](NC)C(=O)O; NMeV = CN[C@H](C(=O)O)C(C)C; Nle = CCCC[C@H](N)C(=O)O; dNMeA = CN[C@H](C)C(=O)O

The conditions of this data set: PAMPA. For orientation: PAMPA measures passive passage across an artificial lipid membrane.
Regarding `CC(C)[C@@H]1NC(=O)[C@H](C)NC(=O)[C@H]2CCCN2C(=O)[C@@H](Cc2ccccc2)NC(=O)[C@H]2CCCN2C(=O)[C@@H]2CCCN2C(=O)[C@H](Cc2ccccc2)NC(=O)[C@H](C)NC(=O)[C@H]2CCCN2C1=O` [Design D9.36, VAL DPRO ALA PHE PRO DPRO DPHE DPRO ALA] (cyclo(AFP[dP][dF][dP]AV[dP])), the PAMPA_Papp_Avg entry is “BQL”, the PAMPA_R1 entry is reported as “BQL” and the PAMPA_R3 entry is “BQL”.
Compound `CC[C@@H](C)[C@H]1NC(=O)[C@@H](CC(C)C)N(C)C(=O)[C@@H]2CCCN2C(=O)[C@H]([C@@H](C)CC)NC(=O)[C@H]([C@@H](C)CC)N(C)C(=O)[C@@H](CC(C)C)NC(=O)[C@@H](C(C)C)N(C)C(=O)[C@H]2CCCN2C(=O)[C@@H](C(C)C)NC(=O)[C@@H]2CCCN2C(=O)[C@H]([C@@H](C)CC)NC1=O` (single isomer, unassigned) [Design D11.23.p1, DVAL DPRO *DVAL DLEU *ILE ILE PRO *DLEU DILE ILE PRO] came in with a PAMPA_Papp_Avg of 2.70E-06, a PAMPA_R1 of 1.22E-06 and a PAMPA_R3 of 5.23E-06.
In the same order, the values of `CCCC[C@@H]1NC(=O)[C@H](C(C)C)NC(=O)[C@H]2CCCN2C(=O)[C@@H]2CCCN2C(=O)[C@H](C)NC(=O)[C@@H](C)N(C)C(=O)[C@@H](CC(C)C)N(C)C(=O)[C@@H](C(C)C)NC(=O)[C@@H]2CCCN2C1=O` [Design D9.21, ALA PRO DPRO VAL MET PRO DVAL *DLEU *DALA] (cyclo(AP[dP]V[Nle]P[dV][dNMeL][dNMeA])) are 2.94E-07, 2.78E-07 and 3.05E-07.
`CC(C)C[C@@H]1NC(=O)[C@@H](C(C)C)NC(=O)[C@H](CC(C)C)N(C)C(=O)[C@H]2CCCN2C(=O)[C@@H](C(C)C)NC(=O)[C@H]2CCCN2C(=O)[C@@H](C(C)C)NC(=O)[C@@H](Cc2ccccc2)N(C)C(=O)[C@H](CC(C)C)N(C)C1=O` (single isomer, unassigned) [Design D9.8.p2, *LEU DVAL LEU *LEU *DPHE DVAL DPRO DVAL DPRO] yielded a PAMPA_Papp_Avg of 9.35E-07, a PAMPA_R1 of 1.16E-06 and a PAMPA_R3 of 8.61E-07.
In the same order, the values of `CC[C@H](C)[C@@H]1NC(=O)[C@@H](CC(C)C)NC(=O)[C@H]2CCCN2C(=O)[C@@H]2CCCN2C(=O)[C@H](C)NC(=O)[C@H]2CCCN2C(=O)[C@@H]2CCCN2C(=O)[C@H](C)NC(=O)[C@@H](C(C)C)N(C)C1=O` [Design D9.37, DPRO DLEU ILE *DVAL ALA PRO DPRO ALA PRO] (cyclo(AP[dP]AP[dP][dL]I[dNMeV])) are “BQL”, “BQL” and “BQL”.
On to `CC[C@@H](C)[C@H]1NC(=O)[C@@H](CC(C)C)N(C)C(=O)[C@@H](CC(C)C)N(C)C(=O)[C@H](CC(C)C)NC(=O)[C@@H](CC(C)C)N(C)C(=O)[C@H](Cc2ccccc2)NC(=O)[C@H](CC(C)C)NC(=O)[C@@H]2CCCN2C(=O)[C@H]2CCCN2C(=O)[C@@H]2CCCN2C(=O)[C@H](CC(C)C)NC1=O` [Design D11.22, PHE *DLEU LEU *DLEU *DLEU DILE LEU PRO DPRO PRO LEU] (cyclo(LF[dNMeL]L[dNMeL][dNMeL][dI]LP[dP]P)), for which the PAMPA_Papp_Avg entry is “BQL”, the PAMPA_R1 result is given as “BQL” and the PAMPA_R3 entry is on record as “BQL”.
`CC(C)[C@@H]1C(=O)N[C@@H](Cc2ccccc2)C(=O)N2CCC[C@H]2C(=O)N(C)[C@H](Cc2ccccc2)C(=O)N[C@H](C)C(=O)N2CCC[C@H]2C(=O)N1C` (single isomer, unassigned) [Design D6.8.p2, *DPHE DALA PRO *DVAL PHE PRO]: the PAMPA_Papp_Avg amounted to 1.77e-06 cm/s, the PAMPA_R1 was found to be 1.92e-06 cm/s and the PAMPA_R3 is 1.94e-06 cm/s.
In the same order, the values of `CC[C@@H](C)[C@H]1NC(=O)[C@H](C(C)C)NC(=O)[C@H](Cc2ccccc2)NC(=O)[C@H](C)NC(=O)[C@@H]2CCCN2C(=O)[C@H]2CCCN2C(=O)[C@H]2CCCN2C(=O)[C@H](CC(C)C)N(C)C(=O)[C@@H](C)N(C)C(=O)[C@H](C(C)C)NC1=O` [Design D10.38, VAL *DALA *LEU DPRO DPRO PRO ALA PHE VAL DILE] (cyclo(AFV[dI]V[dNMeA][NMeL][dP][dP]P)) are “BQL”, “BQL” and “BQL”.
On to `CC[C@H](C)[C@@H]1NC(=O)[C@H]2CCCN2C(=O)[C@@H](CC(C)C)N(C)C(=O)[C@H](CC(C)C)NC(=O)[C@@H](C)N(C)C(=O)[C@H]2CCCN2C(=O)[C@@H](CC(C)C)NC(=O)[C@@H](C(C)C)NC(=O)[C@H](CC(C)C)NC(=O)[C@@H](C)NC(=O)[C@@H](Cc2ccccc2)NC(=O)[C@H]2CCCN2C1=O` [Design D12.2, ILE DPRO DPHE DALA LEU DVAL DLEU DPRO *DALA LEU *DLEU DPRO] (cyclo(I[dP][dF][dA]L[dV][dL][dP][dNMeA]L[dNMeL][dP])), for which the PAMPA_Papp_Avg result is “BQL”, the PAMPA_R1 entry was “BQL” and the PAMPA_R3 entry is “BQL”.
Take `CC[C@H](C)[C@@H]1NC(=O)[C@H](C(C)C)NC(=O)[C@@H](CC(C)C)N(C)C(=O)[C@H](Cc2ccccc2)N(C)C(=O)[C@H]2CCCN2C(=O)[C@H](C(C)C)NC(=O)[C@@H](C)NC(=O)[C@H](CC(C)C)N(C)C(=O)[C@H]2CCCN2C(=O)[C@@H](Cc2ccccc2)NC1=O` [Design D10.9, DPRO *LEU DALA VAL DPRO *PHE *DLEU VAL ILE DPHE] (cyclo(I[dF][dP][NMeL][dA]V[dP][NMeF][dNMeL]V)): the PAMPA_Papp_Avg entry is “BQL”, the PAMPA_R1 entry was “BQL” and the PAMPA_R3 result is reported as “BQL”.
Take `CC[C@H](C)[C@@H]1NC(=O)[C@H]2CCCN2C(=O)[C@H](C(C)C)NC(=O)[C@H](C(C)C)N(C)C(=O)[C@@H](C(C)C)NC(=O)[C@H](C(C)C)NC(=O)[C@H]2CCCN2C(=O)[C@@H]2CCCN2C(=O)[C@H](C)NC(=O)[C@@H](CC(C)C)N(C)C(=O)[C@H]2CCCN2C1=O` [Design D11.8, PRO DPRO VAL DVAL *VAL VAL DPRO ILE DPRO *DLEU ALA] (cyclo(AP[dP]V[dV][NMeV]V[dP]I[dP][dNMeL])): the PAMPA_Papp_Avg entry is listed as “BQL”, the PAMPA_R1 entry is on record as “BQL” and the PAMPA_R3 result is reported as “BQL”.
For the compound `CC[C@@H](C)[C@H]1NC(=O)[C@@H](C)NC(=O)[C@@H](CC(C)C)NC(=O)[C@@H](Cc2ccccc2)NC(=O)[C@@H]2CCCN2C(=O)[C@@H]2CCCN2C(=O)[C@@H](CC(C)C)N(C)C(=O)[C@@H](C)N(C)C(=O)[C@@H](CC(C)C)NC(=O)[C@H](CC(C)C)NC(=O)[C@@H](Cc2ccccc2)NC1=O` [Design D11.18, DALA DILE DPHE LEU DLEU *DALA *DLEU PRO PRO DPHE DLEU] (cyclo(L[dL][dNMeA][dNMeL]PP[dF][dL][dA][dI][dF])), the PAMPA_Papp_Avg entry is on record as “BQL”, the PAMPA_R1 entry was “BQL” and the PAMPA_R3 entry is “BQL”.
On to `CC[C@H](C)[C@@H]1NC(=O)[C@@H](CC(C)C)NC(=O)[C@H](CC(C)C)NC(=O)[C@H]2CCCN2C(=O)[C@@H]2CCCN2C(=O)[C@H]([C@@H](C)CC)NC(=O)[C@@H](CC(C)C)N(C)C(=O)[C@@H](CC(C)C)N(C)C1=O` [Design D8.9, ILE *DLEU *DLEU ILE PRO DPRO LEU DLEU] (cyclo(IP[dP]L[dL]I[dNMeL][dNMeL])), for which the PAMPA_Papp_Avg result was “BQL”, the PAMPA_R1 entry is “BQL” and the PAMPA_R3 entry is “BQL”.
Turning to `CC[C@@H](C)[C@H]1NC(=O)[C@@H]2CCCN2C(=O)[C@H]2CCCN2C(=O)[C@@H](CC(C)C)NC(=O)[C@@H](C)N(C)C(=O)[C@H]2CCCN2C(=O)[C@H]2CCCN2C(=O)[C@H](C(C)C)NC1=O` [Design D8.24, DPRO PRO DILE VAL DPRO DPRO *DALA DLEU] (cyclo([dI]V[dP][dP][dNMeA][dL][dP]P)), the PAMPA_Papp_Avg entry is on record as “BQL”, the PAMPA_R1 entry was “BQL” and the PAMPA_R3 entry was “BQL”.
Regarding `CC(C)C[C@@H]1C(=O)N[C@H](C(C)C)C(=O)N[C@@H](C)C(=O)N2CCC[C@H]2C(=O)N2CCC[C@H]2C(=O)N[C@@H](C)C(=O)N2CCC[C@@H]2C(=O)N[C@@H](Cc2ccccc2)C(=O)N2CCC[C@H]2C(=O)N[C@@H](C(C)C)C(=O)N1C` [Design D10.53, ALA DPRO PHE PRO VAL *DLEU DVAL ALA PRO PRO] (cyclo(APPA[dP]FPV[dNMeL][dV])), the PAMPA_Papp_Avg result is listed as “BQL”, the PAMPA_R1 entry is “BQL” and the PAMPA_R3 result is reported as “BQL”.
In the case of `CC(C)C[C@@H]1NC(=O)[C@@H](C(C)C)NC(=O)[C@@H]2CCCN2C(=O)[C@H]2CCCN2C(=O)[C@H](Cc2ccccc2)NC(=O)[C@@H](C)NC(=O)[C@@H](CC(C)C)N(C)C(=O)[C@@H]2CCCN2C(=O)[C@H]2CCCN2C(=O)[C@@H](C(C)C)NC(=O)[C@@H](C)N(C)C1=O` [Design D11.12, DVAL DPRO PRO *DLEU DALA PHE DPRO PRO DVAL LEU *DALA] (cyclo([dNMeL][dA]F[dP]P[dV]L[dNMeA][dV][dP]P)), the PAMPA_Papp_Avg entry is recorded as “BQL”, the PAMPA_R1 result was “BQL” and the PAMPA_R3 entry is recorded as “BQL”.
Consider `CCCC[C@H]1C(=O)N[C@@H]([C@@H](C)CC)C(=O)N2CCC[C@H]2C(=O)N2CCC[C@@H]2C(=O)N[C@H](CC(C)C)C(=O)N[C@@H]([C@@H](C)CC)C(=O)N2CCC[C@@H]2C(=O)N[C@H](Cc2ccccc2)C(=O)N[C@@H](C(C)C)C(=O)N(C)[C@H](CC(C)C)C(=O)N1C` [Design D10.44, VAL *DLEU *MET ILE PRO DPRO DLEU ILE DPRO DPHE] (cyclo(IP[dP][dL]I[dP][dF]V[dNMeL][NMeNle])), for which the PAMPA_Papp_Avg result was “BQL”, the PAMPA_R1 result is on record as “BQL” and the PAMPA_R3 entry is “BQL”.
`CC[C@@H](C)[C@H]1NC(=O)[C@H](CC(C)C)N(C)C(=O)[C@H]2CCCN2C(=O)[C@H](CC(C)C)NC(=O)[C@H](Cc2ccccc2)N(C)C(=O)CN(C)C(=O)[C@@H](C(C)C)NC(=O)[C@H](C)NC(=O)[C@H]2CCCN2C(=O)[C@@H]2CCCN2C1=O` (single isomer, unassigned) [Design D10.58.p2, *GLY *PHE LEU DPRO *LEU DILE PRO DPRO ALA DVAL] gave a PAMPA_Papp_Avg of 3.23E-07, a PAMPA_R1 of 3.15E-07 and a PAMPA_R3 of 2.44E-07.
